Reference: patent US20260355142A1, “AMORPHOUS OTE[…] COMPOSITIONS AND USES THEREOF AND DOSAGE REGIMENS FOR OTENAPROXESUL” (ANTIBE THERAPEUTICS INC., priority 2022, published 2026)
Blank lines part the entries; values can stand above or below the molecule they belong to.

Legend:
PGE2 = test: Pharmacodynamics in Beagle dogs, plasma PGE2; assay type: in vivo; conditions: 15 mg/kg
Experimental: (§1) The pharmacokinetics of five different formulations of otenaproxesul (formerly ATB-346) were evaluated in Beagle dogs. Five groups of dogs (n=3/group) were orally administered their assigned formulations once daily for four days. Blood samples were taken for a full 24-hour PK profile on Day 1 and on Day 4.
(§2) Group 1 was administered crystalline otenaproxesul, Group 2 was administered milled crystalline otenaproxesul, Group 3 was administered micro-milled crystalline otenaproxesul, Group 4 was administered exemplary ASD no. 1 (see Example 7A above) and Group 5 was administered exemplary ASD no. 4 (see Example 7A above). Dose administered was 15 mg/kg (human equivalent dose of 525 mg).
(§3) Pharmacodynamic assessment of TXB2 and PGE2 plasma concentrations were assessed on: • Day 1, one hour post treatment • Day 1, 12 hours post treatment • Day 4, pre-treatment • Day 4, one hour post treatment • Day 4, 12 hours post treatment.

TXB2 = test: Pharmacodynamics in Beagle dogs, plasma TXB2; assay type: in vivo; conditions: 15 mg/kg, Day 1 and Day 4 pre-treatment
Experimental: as §1, §2, §3

[1] = Pharmacokinetics in Beagle dogs of five formulations (Example 15); assay type: in vivo; conditions: Day 1, 1- and 12-hour time points
Experimental: as §1, §2
Crystalline otenaproxesul was administered to dog Groups 1-3 in gelatin capsules by oral gavage. Exemplary ASD no. 1 and exemplary ASD no. 4 were administered as oral suspensions to dog Groups 4-5.

[2] = H2S release / formulation stability in simulated intestinal fluid; conditions: SIF, 1 mg/ml, 37° C., 5% CO2
Experimental: Assay design: 1 mg of exemplary ASD no. 1 and crystalline otenaproxesul were weighed in separate glass vials. SIF was added to prepare a 1 mg/ml solution which was incubated at 37° C. with 5% CO2. 120 μl was removed at 0.5, 1, 2, 3, 4 and 8 hrs and quenched in DPD (N,N-dimethyl-p-phenylenediamine sulfate) and FeCl3 solutions. A calibration curve was prepared to quantify amount of H2S released. A blank and 10 mM stock was also analyzed. The methylene blue was analyzed using HPLC.

[3] = Dog pharmacokinetics of otenaproxesul amorphous dispersion (Example 20); assay type: in vivo, male Beagle dogs
Experimental: Summary: Over a 4-day treatment period dogs were administered four treatment doses of the otenaproxesul amorphous solid dispersion formulation (exemplary ASD no. 1) and a crystalline otenaproxesul control dose. Treatments corresponding to human equivalent doses of 70.2 mg, 140.4 mg, 280.8 mg and 561.6 mg otenaproxesul were administered once daily to male (n=4) dogs. Crystalline otenaproxesul was administered at the NOAEL dose equivalent to a human dose of 526.5 mg otenaproxesul once daily.
Pharmacokinetic data were evaluated on M25 plasma naproxen concentrations at 60 minutes post administration (C60), Day 1 M25 plasma exposure (AUC0-24) and Day 4 M25 plasma exposure (AUC0-Last). Assessment of dose proportional characteristics for M25 plasma concentration at 60 minutes post administration (C60) and at maximal concentration (Cmax) and AUC exposure were measured on Day 1 and Day 4 of treatment.

ALT and/or AST = test: Phase 2b study, liver transaminase elevations; assay type: in vivo, human
Experimental: Study visits occurred on Day 1, Day 4, and Day 14 of the 14-day treatment phase and included WOMAC evaluations, blood samples for thromboxane B2 TXB2 and pharmacokinetic (PK) testing. The safety of otenaproxesul was evaluated through monitoring for adverse events (AEs), changes in physical examinations, vital signs measurements, and clinical laboratory evaluations.
All patients receiving any amount of study treatment (otenaproxesul or placebo) were included in the safety analysis. Each treatment arm was evaluated separately. In addition to the evaluation and categorization of treatment-emergent adverse events (TEAEs), listings of laboratory test results collected at Baseline and during the study were generated. Descriptive statistics summarizing the changes in those laboratory tests over time were presented.
The majority of otenaproxesul liver associated TEAEs were alanine aminotransferase (ALT) and/or aspartate aminotransferase (AST) liver transaminase elevations. None of these TEAEs were observed during the 14-day treatment period but were captured at the Day 24/Early Termination (ET) follow up assessment.

thromboxane B2 = test: Phase 2b study, plasma thromboxane B2; assay type: in vivo, human
Experimental: Whole blood samples were taken pre-treatment and on Days 1, 4 and 14 for the measurement of thromboxane B2 as an index of cyclo-oxygenase enzyme inhibition. Thromboxane B2 levels were measured using the Thromboxane B2 Elisa Kit from Cayman Chemical, Ann Arbor Michigan. Instructions provided with the Kit were followed.
Blood samples for measurement of thromboxane concentrations were collected at room temperature in 10 mL red top, no additive Vacutainers. Blood samples were taken approximately 4 hours after dosing and divided into 2 aliquots. The first aliquot (1 mL) was prepared for the measurement of otenaproxesul-derived plasma naproxen concentrations. The second aliquot (2 mL) was further divided into 2 polypropylene tubes for the measurement of plasma thromboxane concentrations.

[4] = Phase 1 SAD/MAD clinical trial, safety and tolerability; assay type: in vivo, human
Experimental: Otenaproxesul (crystalline form) was orally administered at a range of doses to healthy volunteers, both as a single dose, and as a daily (or twice-daily) dose for 14 days. Each cohort consisted of 8 subjects, with 6 receiving otenaproxesul and 2 receiving placebo. A total of 8 cohorts were studied in the single-dose study (25 mg, 75 mg, 150 mg, 300 mg, 500 mg, 1000 mg, 1500 mg and 2000 mg), and 3 cohorts in the multiple-dose study (250 and 750 once daily, and 750 mg bid (e.g., 1500 mg/day) for 14 days). All adverse events were recorded, and blood samples were drawn prior to and for at least 72 h after drug administration for measurement of otenaproxesul-derived naproxen levels. Routine cardiovascular, renal, hepatic and hematological biomarkers were monitored, along with clinical signs. Multiple ascending dose studies examined otenaproxesul at doses of 250 and 750 mg once daily, and 750 mg twice daily.

[5] = single dose, oral, 25 mg to 2000 mg, crystalline

lower M25 plasma concentration than the exemplary ASDs [1]: 10 × | H2S release ([2]; 0.5 hrs): 0.7 µM | H2S release ([2]; 1 hr): 0.7 µM | H2S release ([2]; 2 hrs): 1.2 µM | H2S release ([2]; 3 hrs): 2.2 µM | H2S release ([2]; 4 hrs): 3.7 µM | H2S release ([2]; 8 hrs): 8.5 µM | M25 plasma concentration at 1 hour, Day 4, compared ([3]; crystalline HED 527 mg vs amorphous HED 562 mg): comparable M25 plasma concentrations | Cmax Day 4/Day 1 ratio ([3]; dogs, HED 526.5 mg): 1.4 | steady state pharmacokinetics of M25 compared ([3]; dogs, crystalline 526.5 mg vs amorphous 561.6 mg HED): virtually identical
SMILES: COc1ccc2cc([C@H](C)C(=O)Oc3ccc(C(N)=S)cc3)ccc2c1 [crystalline otenaproxesul]
PGE2 inhibition (PGE2; Day 1 12-hour): not maintained | PGE2 inhibition (PGE2; Day 4 pre-treatment): recovered to a large extent | inhibition of TXB2 relative to ASDs (TXB2): inhibition of TXB2 was lower

SMILES: COc1ccc2cc([C@H](C)C(=O)Oc3ccc(C(N)=S)cc3)ccc2c1 [otenaproxesul, (S)-4-carbamothioylphenyl 2-(6-methoxynaphthalen-2-yl) propanoate]
patients with treatment-related >3×ULN ALT and/or AST (ALT and/or AST; 150 mg (6/61)): 9.8% | patients with treatment-related increases in ALT and/or AST (ALT and/or AST; 150 mg (6/61)): 9.8% | patients with treatment-related >3×ULN ALT and/or AST (ALT and/or AST; 200 mg (9/125)): 7.2% | patients with treatment-related increases in ALT and/or AST (ALT and/or AST; 200 mg (9/125)): 7.2% | patients with treatment-related >3×ULN ALT and/or AST (ALT and/or AST; 250 mg (17/132)): 12.9% | patients with treatment-related increases in ALT and/or AST (ALT and/or AST; 250 mg (17/132)): 12.9% | plasma thromboxane B2 levels (thromboxane B2; 150 mg daily): marked reduction in plasma thromboxane B2 levels | TXB2 levels (thromboxane B2; Day 1, 150, 200, 250 mg): significant suppression of thromboxane B2 levels | inhibition of TXB2 synthesis (thromboxane B2; Day 4, 150, 200, 250 mg): profound inhibition of thromboxane B2 synthesis | inhibition of TXB2 synthesis (thromboxane B2; Day 14, 150, 200, 250 mg): profound inhibition of thromboxane B2 synthesis | tolerability ([4]; all single, once daily administered dose levels): very well tolerated and shown to be safe | gastrointestinal, cardiovascular, renal or hematological findings [4, 5]: nor were there any significant gastrointestinal, cardiovascular renal, or hematological findings | serious adverse events [4, 5]: did not produce any serious adverse events
